Measurements published in ChEMBL document CHEMBL1201862, “PubChem BioAssay data set” (2004).
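A five-concentration, 48-hour dose response in 96-well plates underlies each endpoint, interpolated linearly between surrounding concentrations. GI50: concentration for 50% inhibition of growth.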 Calls of active or inactive are those of the source. No stated cut-off is given here; in the data, active = GI50 up to about 1.1 µM and inactive = higher.

Key:
Test in all cases: inhibition of tumour cell growth, NCI panel, 48 h
786-0 = test system: 786-0
A549 = test system: A549
ACHN = test system: ACHN
CAKI-1 = test system: CAKI-1
CCRF-CEM = test system: CCRF-CEM
COLO 205 = test system: COLO 205
DLD-1 = test system: DLD-1
DMS-114 = test system: DMS-114
DMS-273 = test system: DMS-273
EKVX = test system: EKVX
HCC 2998 = test system: HCC 2998
HCT-116 = test system: HCT-116
HCT-15 = test system: HCT-15
HL-60 = test system: HL-60
HOP-18 = test system: HOP-18
HOP-62 = test system: HOP-62
HOP-92 = test system: HOP-92
HT-29 = test system: HT-29
IGROV-1 = test system: IGROV-1
K562 = test system: K562
KM-20L2 = test system: KM-20L2
KM12 = test system: KM12
LOX IMVI = test system: LOX IMVI
LXFL 529 = test system: LXFL 529
M14 = test system: M14
M19-MEL = test system: M19-MEL
MOLT-4 = test system: MOLT-4
Malme-3M = test system: Malme-3M
NCI-H226 = test system: NCI-H226
NCI-H23 = test system: NCI-H23
NCI-H460 = test system: NCI-H460
NCI-H522 = test system: NCI-H522
OVCAR-3 = test system: OVCAR-3
OVCAR-4 = test system: OVCAR-4
OVCAR-5 = test system: OVCAR-5
OVCAR-8 = test system: OVCAR-8
RPMI-8226 = test system: RPMI-8226
RXF 631 = test system: RXF 631
SF-295 = test system: SF-295
SF-539 = test system: SF-539
SK-MEL-28 = test system: SK-MEL-28
SK-MEL-2 = test system: SK-MEL-2
SK-MEL-5 = test system: SK-MEL-5
SK-OV-3 = test system: SK-OV-3
SN12C = test system: SN12C
SNB-19 = test system: SNB-19
SNB-75 = test system: SNB-75
SNB-78 = test system: SNB-78
SR = test system: SR
SW-620 = test system: SW-620
TK-10 = test system: TK-10
U-251 = test system: U-251
UACC-257 = test system: UACC-257
UACC-62 = test system: UACC-62
UO-31 = test system: UO-31
XF498 = test system: XF498
A498 = test system: A498
RXF 393 = test system: RXF 393
SF-268 = test system: SF-268

Compound: O=C(O)CNc1cc(-c2ccccc2)nc(NCC(=O)O)n1
- GI50 (786-0): > 100 µM (inactive)
- GI50 (A549): > 100 µM (inactive)
- GI50 (ACHN): > 100 µM (inactive)
- GI50 (CAKI-1): > 100 µM (inactive)
- GI50 (CCRF-CEM): > 100 µM (inactive)
- GI50 (COLO 205): > 100 µM (inactive)
- GI50 (DLD-1): > 100 µM (inactive)
- GI50 (DMS-114): > 100 µM (inactive)
- GI50 (DMS-273): > 100 µM (inactive)
- GI50 (EKVX): > 100 µM (inactive)
- GI50 (HCC 2998): > 100 µM (inactive)
- GI50 (HCT-116): > 100 µM (inactive)
- GI50 (HCT-15): > 100 µM
- GI50 (HL-60): > 100 µM (inactive)
- GI50 (HOP-18): > 100 µM (inactive)
- GI50 (HOP-62): > 100 µM (inactive)
- GI50 (HOP-92): > 100 µM (inactive)
- GI50 (HT-29): > 100 µM (inactive)
- GI50 (IGROV-1): > 100 µM (inactive)
- GI50 (K562): > 100 µM (inactive)
- GI50 (KM-20L2): > 100 µM (inactive)
- GI50 (KM12): > 100 µM (inactive)
- GI50 (LOX IMVI): > 100 µM (inactive)
- GI50 (LXFL 529): > 100 µM (inactive)
- GI50 (M14): > 100 µM (inactive)
- GI50 (M19-MEL): > 100 µM (inactive)
- GI50 (MOLT-4): > 100 µM (inactive)
- GI50 (Malme-3M): > 100 µM (inactive)
- GI50 (NCI-H226): > 100 µM (inactive)
- GI50 (NCI-H23): > 100 µM (inactive)
- GI50 (NCI-H460): > 100 µM (inactive)
- GI50 (NCI-H522): > 100 µM (inactive)
- GI50 (OVCAR-3): > 100 µM (inactive)
- GI50 (OVCAR-4): > 100 µM (inactive)
- GI50 (OVCAR-5): > 100 µM (inactive)
- GI50 (OVCAR-8): > 100 µM (inactive)
- GI50 (RPMI-8226): > 100 µM (inactive)
- GI50 (RXF 631): > 100 µM (inactive)
- GI50 (SF-295): > 100 µM (inactive)
- GI50 (SF-539): > 100 µM (inactive)
- GI50 (SK-MEL-28): 49.5 µM (inactive)
- GI50 (SK-MEL-2): > 100 µM (inactive)
- GI50 (SK-MEL-5): > 100 µM (inactive)
- GI50 (SK-OV-3): > 100 µM (inactive)
- GI50 (SN12C): > 100 µM (inactive)
- GI50 (SNB-19): > 100 µM (inactive)
- GI50 (SNB-75): > 100 µM (inactive)
- GI50 (SNB-78): > 100 µM (inactive)
- GI50 (SR): > 100 µM (inactive)
- GI50 (SW-620): > 100 µM (inactive)
- GI50 (TK-10): > 100 µM (inactive)
- GI50 (U-251): > 100 µM (inactive)
- GI50 (UACC-257): > 100 µM (inactive)
- GI50 (UACC-62): > 100 µM (inactive)
- GI50 (UO-31): > 100 µM (inactive)
- GI50 (XF498): > 100 µM (inactive)

Compound: CCOC(=O)/C(=C/c1cc(OC)ccc1OC)CC(=O)O
- GI50 (786-0): > 31.6 µM (inactive)
- GI50 (A498): > 100 µM (inactive)
- GI50 (A549): > 100 µM (inactive)
- GI50 (ACHN): > 100 µM (inactive)
- GI50 (CAKI-1): > 100 µM (inactive)
- GI50 (CCRF-CEM): > 31.6 µM (inactive)
- GI50 (COLO 205): > 100 µM (inactive)
- GI50 (DLD-1): > 31.6 µM (inactive)
- GI50 (DMS-114): > 100 µM (inactive)
- GI50 (DMS-273): > 100 µM (inactive)
- GI50 (EKVX): > 100 µM (inactive)
- GI50 (HCC 2998): > 31.6 µM (inactive)
- GI50 (HCT-116): > 100 µM (inactive)
- GI50 (HCT-15): > 43.7 µM
- GI50 (HL-60): > 31.6 µM (inactive)
- GI50 (HOP-18): > 100 µM (inactive)
- GI50 (HOP-62): > 10 µM (inactive)
- GI50 (HOP-92): > 100 µM (inactive)
- GI50 (HT-29): > 94.4 µM (inactive)
- GI50 (IGROV-1): > 100 µM (inactive)
- GI50 (K562): > 31.6 µM (inactive)
- GI50 (KM-20L2): > 100 µM (inactive)
- GI50 (KM12): > 100 µM (inactive)
- GI50 (LOX IMVI): > 100 µM (inactive)
- GI50 (LXFL 529): > 100 µM (inactive)
- GI50 (M14): > 100 µM (inactive)
- GI50 (M19-MEL): > 100 µM (inactive)
- GI50 (MOLT-4): > 25.7 µM (inactive)
- GI50 (Malme-3M): > 31.6 µM (inactive)
- GI50 (NCI-H23): > 100 µM (inactive)
- GI50 (NCI-H460): > 100 µM (inactive)
- GI50 (NCI-H522): > 100 µM (inactive)
- GI50 (OVCAR-3): > 100 µM (inactive)
- GI50 (OVCAR-4): > 100 µM (inactive)
- GI50 (OVCAR-8): > 100 µM (inactive)
- GI50 (RXF 393): > 100 µM (inactive)
- GI50 (RXF 631): > 100 µM (inactive)
- GI50 (SF-268): > 100 µM (inactive)
- GI50 (SF-295): > 100 µM (inactive)
- GI50 (SF-539): > 100 µM (inactive)
- GI50 (SK-MEL-28): > 100 µM (inactive)
- GI50 (SK-MEL-2): 19.5 µM (inactive)
- GI50 (SK-MEL-5): > 100 µM (inactive)
- GI50 (SK-OV-3): > 100 µM (inactive)
- GI50 (SN12C): > 100 µM (inactive)
- GI50 (SNB-19): > 100 µM (inactive)
- GI50 (SNB-75): > 100 µM (inactive)
- GI50 (SNB-78): > 100 µM (inactive)
- GI50 (SR): > 100 µM (inactive)
- GI50 (SW-620): > 100 µM (inactive)
- GI50 (TK-10): > 100 µM (inactive)
- GI50 (U-251): > 100 µM (inactive)
- GI50 (UACC-257): > 100 µM (inactive)
- GI50 (UACC-62): > 100 µM (inactive)
- GI50 (UO-31): > 100 µM (inactive)
- GI50 (XF498): > 39.3 µM (inactive)

Compound: COc1ccc([Se]c2ccc(OC)cc2OC)c(OC)c1
- GI50 (786-0): 40.5 µM (inactive)
- GI50 (A498): 18.7 µM (inactive)
- GI50 (A549): 10.8 µM (inactive)
- GI50 (ACHN): 45.3 µM (inactive)
- GI50 (CAKI-1): 19.5 µM (inactive)
- GI50 (CCRF-CEM): 20.2 µM (inactive)
- GI50 (COLO 205): 11.4 µM (inactive)
- GI50 (DLD-1): 17.4 µM (inactive)
- GI50 (DMS-114): 3.44 µM (inactive)
- GI50 (DMS-273): 3.85 µM (inactive)
- GI50 (HCT-116): 12.1 µM (inactive)
- GI50 (HL-60): 5.38 µM (inactive)
- GI50 (HOP-18): 20.2 µM (inactive)
- GI50 (HOP-92): 2.2 µM (inactive)
- GI50 (HT-29): 4.58 µM (inactive)
- GI50 (IGROV-1): 5.37 µM (inactive)
- GI50 (K562): 10.5 µM (inactive)
- GI50 (KM-20L2): 8.38 µM (inactive)
- GI50 (KM12): 17.4 µM (inactive)
- GI50 (LOX IMVI): 24.6 µM (inactive)
- GI50 (LXFL 529): 30.1 µM (inactive)
- GI50 (M14): 18.4 µM (inactive)
- GI50 (M19-MEL): 9.46 µM (inactive)
- GI50 (MOLT-4): 5.36 µM (inactive)
- GI50 (Malme-3M): 14.9 µM (inactive)
- GI50 (NCI-H226): 20 µM (inactive)
- GI50 (NCI-H23): 29.9 µM (inactive)
- GI50 (NCI-H460): 19.6 µM (inactive)
- GI50 (NCI-H522): 13 µM (inactive)
- GI50 (OVCAR-3): 32 µM (inactive)
- GI50 (OVCAR-4): 21.9 µM (inactive)
- GI50 (OVCAR-5): > 100 µM (inactive)
- GI50 (OVCAR-8): 33.6 µM (inactive)
- GI50 (RPMI-8226): 20.7 µM (inactive)
- GI50 (RXF 393): 18.2 µM (inactive)
- GI50 (RXF 631): 22.1 µM (inactive)
- GI50 (SF-268): 35.6 µM (inactive)
- GI50 (SF-295): 8.57 µM (inactive)
- GI50 (SF-539): 22.6 µM (inactive)
- GI50 (SK-MEL-28): 15.8 µM (inactive)
- GI50 (SK-MEL-2): 17.5 µM (inactive)
- GI50 (SK-MEL-5): 22.2 µM (inactive)
- GI50 (SK-OV-3): 34.3 µM (inactive)
- GI50 (SN12C): 36.4 µM (inactive)
- GI50 (SNB-19): 86.7 µM (inactive)
- GI50 (SNB-75): 9.02 µM (inactive)
- GI50 (SNB-78): 22.6 µM (inactive)
- GI50 (SR): 6.22 µM (inactive)
- GI50 (SW-620): 4.66 µM (inactive)
- GI50 (TK-10): 28.4 µM (inactive)
- GI50 (U-251): 21.6 µM (inactive)
- GI50 (UACC-257): 61.2 µM (inactive)
- GI50 (UACC-62): 11.1 µM (inactive)
- GI50 (UO-31): 18 µM (inactive)
- GI50 (XF498): 24.9 µM (inactive)
